Each structure is given as a SMILES string.

The first assay deals with T1, GCS (Canis lupus familiaris, UniProt A0A8I3MXG6).
T1 sequence (A0A8I3MXG6 1-394): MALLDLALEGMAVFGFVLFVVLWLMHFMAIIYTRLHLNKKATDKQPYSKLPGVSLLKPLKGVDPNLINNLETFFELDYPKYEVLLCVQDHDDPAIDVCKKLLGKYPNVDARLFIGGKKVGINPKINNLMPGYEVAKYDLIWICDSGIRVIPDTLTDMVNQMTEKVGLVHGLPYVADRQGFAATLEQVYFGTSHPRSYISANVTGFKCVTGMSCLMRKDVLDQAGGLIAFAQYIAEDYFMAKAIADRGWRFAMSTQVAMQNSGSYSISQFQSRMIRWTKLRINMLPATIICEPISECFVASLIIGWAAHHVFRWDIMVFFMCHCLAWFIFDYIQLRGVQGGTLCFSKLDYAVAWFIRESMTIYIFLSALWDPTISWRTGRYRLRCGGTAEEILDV
Description: Assay 1: GCS Enzymatic Assay (MDCK cell lysate, C6-NBD-Ceramide, LC/MS). In kind it is biochemical, canine. To be noted: Table 2; data without asterisk; read-out: IC50 (nM) generated from Assay 1. The method, boiled down: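 LC/MS/MS measurement of glucosylceramide and NBD-ceramide after a 1 h, 37 °C reaction with 100 μM UDP-glucose and 10 μM C6-NBD-ceramide gave IC50s or percent inhibition.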
Regarding `Cc1nn(C)c2cc(-c3ccc(C(=O)C(=O)N[C@H](CN4CCCC4)[C@H](O)c4ccc(OC5CC5)c(Cl)c4)cc3)ccc12` [Example 340, N-((1R,2R)-1-(3-chloro-4-cyclopropoxyphenyl)-1-hydroxy-3-(pyrrolidin-1-yl)propan-2-yl)-2-(4-(1,3-dimethyl-1H-indazol-6-yl)phenyl)-2-oxoacetamide], the IC50 (in general, the concentration that gives 50% inhibition) is below 50 nM. As for `Cc1nn(C)c2cc(-c3ccc(C(=O)C(=O)N[C@H](CN4CCCC4)[C@H](O)c4cc(F)c5c(c4)OCCO5)cc3)ccc12` [Example 341, 2-(4-(1,3-dimethyl-1H-indazol-6-yl)phenyl)-N-((1R,2R)-1-(8-fluoro-2,3-dihydrobenzo[b][1,4]dioxin-6-yl)-1-hydroxy-3-(pyrrolidin-1-yl)propan-2-yl)-2-oxoacetamide], the IC50 was below 50 nM. The same measure, in the same setting: with `Cc1c2ccc(-c3ccc(C(=O)C(=O)N[C@H](CN4CCCC4)[C@H](O)c4cc(F)c5c(c4)OCCO5)cc3)cc2nn1C` [Example 342, 2-(4-(2,3-dimethyl-2H-indazol-6-yl)phenyl)-N-((1R,2R)-1-(8-fluoro-2,3-dihydrobenzo[b][1,4]dioxin-6-yl)-1-hydroxy-3-(pyrrolidin-1-yl)propan-2-yl)-2-oxoacetamide] the figure was below 50 nM. On the same count and under the same terms, with `O=C(N[C@H](CN1CCCC1)[C@H](O)c1ccc(OC2CC2)c(Cl)c1)C(=O)c1ccc(N2CCCC2)cc1` [Example 343, N-((1R,2R)-1-(3-chloro-4-cyclopropoxyphenyl)-1-hydroxy-3-(pyrrolidin-1-yl)propan-2-yl)-2-oxo-2-(4-(pyrrolidin-1-yl)phenyl)acetamide] the figure was below 50 nM.

On to `COc1cc([C@@H](O)[C@@H](CN2CCCC2)NC(=O)C(=O)c2ccc(-c3ccc(F)cc3)cc2)cc(F)c1OC(C)C` [Example 344, N-((1R,2R)-1-(3-fluoro-4-isopropoxy-5-methoxyphenyl)-1-hydroxy-3-(pyrrolidin-1-yl)propan-2-yl)-2-(4′-fluoro-[1,1′-biphenyl]-4-yl)-2-oxoacetamide], for which the IC50 is below 50 nM. Same read-out and setting: with `CC(C)n1ccc2ccc(-c3ccc(C(=O)C(=O)N[C@H](CN4CCCC4)[C@H](O)c4cc(F)c5c(c4)OCCO5)cc3)cc21` [Example 345, N-((1R,2R)-1-(8-fluoro-2,3-dihydrobenzo[b][1,4]dioxin-6-yl)-1-hydroxy-3-(pyrrolidin-1-yl)propan-2-yl)-2-(4-(1-isopropyl-1H-indol-6-yl)phenyl)-2-oxoacetamide] the figure was below 50 nM. Regarding `CC(C)n1ccc2ccc(-c3ccc(C(=O)C(=O)N[C@H](CN4CCCC4)[C@H](O)c4ccc(OC5CC5)c(Cl)c4)cc3)cc21` [Example 346, N-((1R,2R)-1-(3-chloro-4-cyclopropoxyphenyl)-1-hydroxy-3-(pyrrolidin-1-yl)propan-2-yl)-2-(4-(1-isopropyl-1H-indo1-6-yl)phenyl)-2-oxoacetamide], the IC50 is below 50 nM. The same measure, in the same setting: the result for `Cc1c2ccc(-c3ccc(C(=O)C(=O)N[C@H](CN4CCCC4)[C@H](O)c4ccc(OC5CC5)c(Cl)c4)cc3)cc2nn1C` [Example 347, N-((1R,2R)-1-(3-chloro-4-cyclopropoxyphenyl)-1-hydroxy-3-(pyrrolidin-1-yl)propan-2-yl)-2-(4-(2,3-dimethyl-2H-indazol-6-yl)phenyl)-2-oxoacetamide] reads below 50 nM; that for `COc1cc([C@@H](O)[C@@H](CN2CCCC2)NC(=O)C(=O)c2cc3ccc(Cl)cc3s2)cc(F)c1OC(C)C` [Example 348, 2-(6-chlorobenzo[b]thiophen-2-yl)-N-((1R,2R)-1-(3-fluoro-4-isopropoxy-5-methoxyphenyl)-1-hydroxy-3-(pyrrolidin-1-yl)propan-2-yl)-2-oxoacetamide], 50 to 5000 nM; that for `O=C(N[C@H](CN1CCCC1)[C@H](O)c1ccc(OC2CC2)c(Cl)c1)C(=O)c1ccc(-c2ccn(C3CC3)n2)cc1` [Example 349, N-((1R,2R)-1-(3-chloro-4-cyclopropoxyphenyl)-1-hydroxy-3-(pyrrolidin-1-yl)propan-2-yl)-2-(4-(1-cyclopropyl-1H-pyrazol-3-yl)phenyl)-2-oxoacetamide], below 50 nM. For the compound `O=C(N[C@H](CN1CCCC1)[C@H](O)c1cc(F)c2c(c1)OCCO2)C(=O)c1ccc(-c2ccn(C3CC3)n2)cc1` [Example 350, 2-(4-(1-cyclopropyl-1H-pyrazol-3-yl)phenyl)-N-((1R,2R)-1-(8-fluoro-2,3-dihydrobenzo[b][1,4]dioxin-6-yl)-1-hydroxy-3-(pyrrolidin-1-yl)propan-2-yl)-2-oxoacetamide], the IC50 was below 50 nM. The same measure, in the same setting: with `CC(C)n1ccc(-c2ccc(C(=O)C(=O)N[C@H](CN3CCCC3)[C@H](O)c3ccc(OC4CC4)c(Cl)c3)cc2)n1` [Example 351, N-((1R,2R)-1-(3-chloro-4-cyclopropoxyphenyl)-1-hydroxy-3-(pyrrolidin-1-yl)propan-2-yl)-2-(4-(1-isopropyl-1H-pyrazol-3-yl)phenyl)-2-oxoacetamide] the figure was below 50 nM; with `CC(C)n1ccc(-c2ccc(C(=O)C(=O)N[C@H](CN3CCCC3)[C@H](O)c3cc(F)c4c(c3)OCCO4)cc2)n1` [Example 352, N-((1R,2R)-1-(8-fluoro-2,3-dihydrobenzo[b][1,4]dioxin-6-yl)-1-hydroxy-3-(pyrrolidin-1-yl)propan-2-yl)-2-(4-(1-isopropyl-1H-pyrazol-3-yl)phenyl)-2-oxoacetamide], below 50 nM. For the compound `O=C(N[C@H](CN1CCCC1)[C@H](O)c1ccc(OC2CC2)c(Cl)c1)C(=O)c1ccc2c(cnn2-c2ccc(F)cc2)c1` [Example 353, N-((1R,2R)-1-(3-chloro-4-cyclopropoxyphenyl)-1-hydroxy-3-(pyrrolidin-1-yl)propan-2-yl)-2-(1-(4-fluorophenyl)-1H-indazol-5-yl)-2-oxoacetamide], the IC50 is below 50 nM. Same read-out and setting: the result for `O=C(N[C@H](CN1CCCC1)[C@H](O)c1ccc(OC2CC2)c(Cl)c1)C(=O)c1ccc2nn(-c3ccc(F)cc3)cc2c1` [Example 354, N-((1R,2R)-1-(3-chloro-4-cyclopropoxyphenyl)-1-hydroxy-3-(pyrrolidin-1-yl)propan-2-yl)-2-(2-(4-fluorophenyl)-2H-indazol-5-yl)-2-oxoacetamide] reads below 50 nM. Same read-out and setting: with `C=C(C)c1ccc(-c2ccc(C(=O)C(=O)N[C@H](CN3CCCC3)[C@H](O)c3ccc(OC4CC4)c(Cl)c3)cc2)cc1` [Example 355, N-((1R,2R)-1-(3-chloro-4-cyclopropoxyphenyl)-1-hydroxy-3-(pyrrolidin-1-yl)propan-2-yl)-2-oxo-2-(4′-(prop-1-en-2-yl)-[1,1′-biphenyl]-4-yl)acetamide] the figure was below 50 nM; with `CC(C)(O)c1ccc(-c2ccc(C(=O)C(=O)N[C@H](CN3CCCC3)[C@H](O)c3cc(F)c4c(c3)OCCO4)cc2)cc1` [Example 356, N-((1R,2R)-1-(8-fluoro-2,3-dihydrobenzo[b][1,4]dioxin-6-yl)-1-hydroxy-3-(pyrrolidin-1-yl)propan-2-yl)-2-(4′-(2-hydroxypropan-2-yl)-[1,1′-biphenyl]-4-yl)-2-oxoacetamide], below 50 nM. Same read-out and setting: the result for `CC(C)c1ccc(-c2ccc(C(=O)C(=O)N[C@H](CN3CCCC3)[C@H](O)c3cc(F)c4c(c3)OCCO4)cc2)cc1` [Example 357, N-((1R,2R)-1-(8-fluoro-2,3-dihydrobenzo[b][1,4]dioxin-6-yl)-1-hydroxy-3-(pyrrolidin-1-yl)propan-2-yl)-2-(4′-isopropyl-[1,1′-biphenyl]-4-yl)-2-oxoacetamide] reads below 50 nM; that for `CC(C)(O)c1ccc(-c2ccc(C(=O)C(=O)N[C@H](CN3CCCC3)[C@H](O)c3ccc(OC4CC4)c(Cl)c3)cc2)cc1` [Example 358, N-((1R,2R)-1-(3-chloro-4-cyclopropoxyphenyl)-1-hydroxy-3-(pyrrolidin-1-yl)propan-2-yl)-2-(4′-(2-hydroxypropan-2-yl)-[1,1′-biphenyl]-4-yl)-2-oxoacetamide], below 50 nM. Turning to `O=C(N[C@H](CN1CCCC1)[C@H](O)c1ccc(OC2CC2)c(F)c1)C(=O)c1ccc(-c2ccc(Cl)s2)cc1` [Example 359, 2-(4-(5-chlorothiophen-2-yl)phenyl)-N-((1R,2R)-1-(4-cyclopropoxy-3-fluorophenyl)-1-hydroxy-3-(pyrrolidin-1-yl)propan-2-yl)-2-oxoacetamide], the IC50 was below 50 nM.

The same assay, now with this note: Table 3; MDCK cell lysate; read-out: IC50 (nM) generated from Assay 1.
In the case of `O=C(N[C@H](CN1CCCC1)[C@H](O)c1ccc(OC2CC2)c(Cl)c1)C(=O)c1cc2cc(Cl)ccc2s1` [Example 384, N-((1R,2R)-1-(3-chloro-4-cyclopropoxyphenyl)-1-hydroxy-3-(pyrrolidin-1-yl)propan-2-yl)-2-(5-chlorobenzo[b]thiophen-2-yl)-2-oxoacetamide], the IC50 is below 50 nM. Still for that read-out and setting: with `O=C(N[C@H](CN1CCCC1)[C@H](O)c1ccc(OC2CC2)c(Cl)c1)C(=O)c1ccc(-n2ccnn2)cc1` [Example 385, 2-(4-(1H-1,2,3-triazol-1-yl)phenyl)-N-((1R,2R)-1-(3-chloro-4-cyclopropoxyphenyl)-1-hydroxy-3-(pyrrolidin-1-yl)propan-2-yl)-2-oxoacetamide] the figure was 50 to 5000 nM; with `O=C(N[C@H](CN1CCCC1)[C@H](O)c1ccc(Cl)cc1)C(=O)c1cc2ccc(Cl)cc2s1` [Example 386, 2-(6-chlorobenzo[b]thiophen-2-yl)-N-((1R,2R)-1-(4-chlorophenyl)-1-hydroxy-3-(pyrrolidin-1-yl)propan-2-yl)-2-oxoacetamide], 50 to 5000 nM.

Source of the values: patent publication US10227323B2, “Glucosylceramide synthase inhibitors for the treatment of diseases” (BIOMARIN PHARMACEUTICAL INC., priority 2013, dated 2019).
